Blank lines part the entries; values can stand above or below the molecule they belong to.
Legend:
[1] = system: rat model of neuropathic pain; experiment: Neuropathic pain model, partial ligation of the sciatic nerve, paw withdrawal thresholds; type: in vivo; conditions: for Peak reversal of mechanical sensitivity: 3 h post-dose
Protocol: (§1) Subjects comprised male, Wistar Hanover rats, 6 animals per group (225±2 g).
(§2) Vehicle (12% Captisol®; 0.5% w/v HPMC and 0.1% w/v Tween-80; 5 ml/kg via the intraperitoneal route) was prepared using autoclaved deionized water not more than one week prior to use.
(§3) The control for the neuropathic pain model was lamotrigine, administered at 30 mg/kg via oral delivery. The control for the inflammatory pain model was diclofenac, administered at 30 mg/kg via oral delivery. Statistical analysis was performed using one-way ANOVA, and comparisons were performed with time-matched vehicle group using Tukey's HSD test wherein *p<0.05, **p<0.01, ***p<0.001.
Neuropathic pain was induced by partial ligation of the sciatic nerve. Briefly, the rats were anaesthetised (isoflurane/O2 inhalation), the left sciatic nerve exposed at mid-thigh level through a small incision and ⅓ to ½ of the nerve thickness tightly ligated within a 7.0 silk suture. The wound was closed with surgical glue. Animals were allowed to recover and tested 12-15 days following surgery.
Withdrawal thresholds were measured on both the ipsilateral (ligated) and contralateral (non-ligated) paws, prior to (predose) and then up to 24 h following drug or vehicle administration.
Pre-dose behavioural measurements were obtained by measuring paw withdrawals 14 days following nerve ligation; before the initiation of drug treatment. Following treatment, further readings were taken at 1, 3, 6 and 24 hour after administration.
(§4) Mechanical hyperalgesia was examined in a model of neuropathic pain by measuring paw withdrawal thresholds (PWT) to increasing mechanical force applied to the dorsal surface of the rat paw using an Analgesymeter (Ugo-Basile, Milan) equipped with a wedge-shaped probe (area 1.75 mm^2). Cut-off was set at 250 g and the end-point was taken as withdrawal of the hind paw. Both ipsilateral and contralateral paw withdrawal readings were taken.
Cold sensitivity can be assessed using a commercially available cold-plate (Ugo Basile, Milan). The cold plate is allowed to stabilize for 5 minutes at the set temperature prior to testing. Paw withdrawal latencies (PWL) are determined with the cold-plate set at 10° C. The animals are lightly restrained and each hind paw in turn placed onto the surface of the cold-plate. The end point is taken as the withdrawal of the paw and recorded as the withdrawal latency for the ipsilateral and the contralateral paw. A maximum cut-off of 30 seconds is used for each paw.
(§5) Data were expressed as withdrawal threshold (g) and percentage reversals calculated according to the following formula: […]

[2] = system: rat model of persistent inflammatory pain; experiment: Persistent inflammatory pain model (FCA), paw withdrawal thresholds; type: in vivo
Protocol: as §1, §2, §3
Mechanical hyperalgesia was examined in a model of persistent inflammatory pain.
The hyperalgesia was induced by an intraplantar injection (25 μl) of Freund's Complete Adjuvant (FCA) into the left hind paw.
To assess the effect of the test compound, paw withdrawal thresholds were measured on both the ipsilateral (FCA-injected) and contralateral (non-injected) paws, prior to (naïve) and 24 h following FCA injection (predose), and then at 1, 3, 6 and 24 h after drug or vehicle administration.
as §4, §5

human Kv3.1 channels = target: T1, human Kv3.1 channels (Homo sapiens, UniProt P48547); experiment: hKv3.1 IonWorks Quattro whole-cell current potentiation assay; type: cell-based; conditions: for % current increase @ conc 1.56 μM: Kv3.1, 1.56 μM; for % current increase @ conc 3.12 μM: Kv3.1, 3.12 μM; for % current increase @ conc 12.5 μM: Kv3.1, 12.5 μM; for EC50: hKv3.1, -15 mV voltage step, read-out: pEC50 (Kv3.1) (converted)
T1 construct: expressed in transfected cells; host or cells: CHO/Gam/E1A-clone22 (CGE22) cells, CHO-K1-derived, transiently transduced with BacMam (pFBM/human Kv3.1, MOI 50)
T1 sequence (P48547 1-511): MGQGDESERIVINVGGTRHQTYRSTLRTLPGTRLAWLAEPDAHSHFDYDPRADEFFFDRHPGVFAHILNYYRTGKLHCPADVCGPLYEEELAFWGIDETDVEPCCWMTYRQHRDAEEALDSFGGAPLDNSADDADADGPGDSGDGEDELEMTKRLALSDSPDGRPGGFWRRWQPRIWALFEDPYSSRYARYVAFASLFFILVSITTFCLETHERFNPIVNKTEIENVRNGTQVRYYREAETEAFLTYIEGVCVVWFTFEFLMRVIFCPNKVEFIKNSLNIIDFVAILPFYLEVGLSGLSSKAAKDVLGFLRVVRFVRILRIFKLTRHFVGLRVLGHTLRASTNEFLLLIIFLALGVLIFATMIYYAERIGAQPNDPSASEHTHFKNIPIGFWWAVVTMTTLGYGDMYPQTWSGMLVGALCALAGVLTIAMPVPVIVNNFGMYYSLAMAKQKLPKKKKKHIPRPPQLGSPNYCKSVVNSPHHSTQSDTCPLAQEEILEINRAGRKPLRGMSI
Text: To assess compound effects on human Kv3.1 channels (hKv3.1), CHO/Gam/E1A-clone22 alias CGE22 cells were transduced using a hKv3.1 BacMam reagent. This cell line was designed to be an improved CHO-K1-based host for enhanced recombinant protein expression as compared to wild type CHO-K1. The cell line was generated following the transduction of CHO-K1 cells with a BacMam virus expressing the Adenovirus-Gam1 protein and selection with Geneticin-G418, to generate a stable cell line, CHO/Gam-A3. CHO/Gam-A3 cells were transfected with pCDNA3-E1A-Hygro, followed by hygromycin-B selection and FACS sorting to obtain single-cell clones. BacMam-Luciferase and BacMam-GFP viruses were then used in transient transduction studies to select the clone based on highest BacMam transduction and recombinant protein expression. CGE22 cells were cultured in the same medium used for the hKv3.2 CHO-K1 stable cell line with the addition of 300 ug/ml hygromycin-B and 300 ug/ml G418. All other conditions were identical to those for hKv3.2 CHO-K1 cells. The day before an experiment 10 million CGE22 cells were plated in a T175 culture flask and the hKv3.1 BacMam reagent (pFBM/human Kv3.1) was added (MOI of 50). Transduced cells were used 24 h later.
Cell Preparation for Ion Works Quattro™ Experiments The day of the experiment, cells were removed from the incubator and the culture medium removed. Cells were washed with 5 ml of Dulbecco's PBS (DPBS) calcium and magnesium free and detached by the addition of 3 ml Versene (Invitrogen, Italy) followed by a brief incubation at 37° C. for 5 minutes. The flask was tapped to dislodge cells and 10 ml of DPBS containing calcium and magnesium was added to prepare a cell suspension. The cell suspension was then placed into a 15 ml centrifuge tube and centrifuged for 2 min at 1200 rpm. After centrifugation, the supernatant was removed and the cell pellet re-suspended in 4 ml of DPBS containing calcium and magnesium using a 5 ml pipette to break up the pellet. Cell suspension volume was then corrected to give a cell concentration for the assay of approximately 3 million cells per ml.
Experiments were conducted at r.t. using lonWorks Quattro™ planar array electrophysiology technology (Molecular Devices Corp.) with PatchPlate™ PPC. Stimulation protocols and data acquisition were carried out using a microcomputer (Dell Pentium 4). Planar electrode hole resistances (Rp) were determined by applying a 10 mV voltage step across each well. These measurements were performed before cell addition. After cell addition and seal formation, a seal test was performed by applying a voltage step from −80 mV to −70 mV for 160 ms. Following this, amphotericin-B solution was added to the intracellular face of the electrode to achieve intracellular access. Cells were held at −70 mV. Leak subtraction was conducted in all experiments by applying 50 ms hyperpolarizing (10 mV) prepulses to evoke leak currents followed by a 20 ms period at the holding potential before test pulses. For hKv3.2 and hKv3.1 assays, from the holding potential of −70 mV, a first test pulse to −15 mV was applied for 100 ms and following a further 100 ms at −70 mV, a second pulse to 40 mV was applied for 50 ms. Cells were then maintained for a further 100 ms at −100 mV and then a voltage ramp from −100 mV to 40 mV was applied over 200 ms. For hKv3.3 assays, from the holding potential of −70 mV, a first test pulse to 0 mV was applied for 500 ms and following a further 100 ms at −70 mV, a second pulse to 40 mV was applied for 200 ms. These longer test pulses were used to study inactivation of hKv3.3 channels. Test pulses protocol may be performed in the absence (pre-read) and presence (post-read) of the test compound. Pre- and post-reads may be separated by the compound addition followed by a 3 minute incubation.
The intracellular solution contained the following (in mM): K-gluconate 100, KCl 54, MgCl2 3.2, HEPES 5, adjusted to pH 7.3 with KOH. […]

SMILES: Cc1ccc(Oc2ncc(N3C(=O)NC(C)(C)C3=O)cn2)c2c1OCC21CC1 [Compound X, 5,5-dimethyl-3-[2-(7-methylspiro[2H-benzofuran-3,1′-cyclopropane]-4-yl)oxypyrimidin-5-yl]imidazolidine-2,4-dione]
- Peak reversal of mechanical sensitivity ([1]; 10 mg/kg i.p.): 31%
- Peak reversal of mechanical sensitivity ([1]; 30 mg/kg i.p.): 73%
- Peak reversal of mechanical sensitivity ([1]; 60 mg/kg i.p.): 81%
- effect on mechanical sensitivity, ipsilateral paw ([1]; 10, 30, 60 mg/kg i.p.): dose-related reversal of mechanical sensitivity
- changes in normal behaviour ([1]; administered acutely, neuropathic and inflammatory pain models): without causing significant changes in normal behaviour
- contralateral paw withdrawal thresholds to mechanical pressure ([1]; rat, in vivo): significant increases
- duration of efficacy ([1]; rat, in vivo): up to 6 h
- time of maximal efficacy after dosing ([1]; rat, in vivo): 1 to 3 h
- effect on cold sensitivity, ipsilateral paw ([1]; results not shown): marked, dose-related reversal of cold sensitivity
- general behaviour observation ([1]; treated rats): induced flaccidity in some of the treated rats
- Peak reversal of mechanical sensitivity ([2]; 10 mg/kg i.p., 3 h post-dose): 64%
- Peak reversal of mechanical sensitivity ([2]; 30 mg/kg i.p., 1 h post-dose): 74%
- Peak reversal of mechanical sensitivity ([2]; 60 mg/kg i.p., 1 h post-dose): 92%
- reversal of mechanical sensitivity ([2]; 60 mg/kg i.p., 6 h post-dose): 45%
- effect on mechanical sensitivity ([2]; 10, 30, 60 mg/kg i.p.): dose-related reversal of mechanical sensitivity
- time of peak reversal post-dose ([2]; rat, in vivo): 1 to 3 h

SMILES: Nc1nnc(-c2cccc(Cl)c2Cl)c(N)n1 [lamotrigine]
- Peak reversal of mechanical sensitivity ([1]; positive control, 30 mg/kg oral): 67%

SMILES: O=C(O)Cc1ccccc1Nc1c(Cl)cccc1Cl [diclofenac]
- peak reversals in mechanical sensitivity ([2]; positive control, 30 mg/kg oral, 1 h post-dose): 64%

- % current increase @ conc 1.56 μM (human Kv3.1 channels): 7%
- % current increase @ conc 3.12 μM (human Kv3.1 channels): 10%
- % current increase @ conc 12.5 μM (human Kv3.1 channels): 12%
- EC50 (human Kv3.1 channels): > 50.1 µM
SMILES: Cc1ccc(O[C@@H]2CC[C@@H](N3C(=O)NC(C)(C)C3=O)C2)c2c1OCC21CC1 (racemic)

- % current increase @ conc 1.56 μM (human Kv3.1 channels): 25%
- % current increase @ conc 3.12 μM (human Kv3.1 channels): 60%
- % current increase @ conc 12.5 μM (human Kv3.1 channels): 105%
- EC50 (human Kv3.1 channels): 3.55 µM
SMILES: Cc1ccc(O[C@H]2C[C@H](N3C(=O)NC(C)(C)C3=O)C2)c2c1OCC21CC1
